Tests used:
Format in all cases: cell-based
Myrothecium verrucaria = assay: Fungicidal activity, minimum inhibitory concentration against fungi
Anabaena cylindrica = assay: Algistatic concentration against algae
Oscillatoria tenius = assay: Algistatic concentration against algae
Trichoderma viridae = assay: Fungicidal activity, minimum inhibitory concentration against fungi
Aspergillus niger = assay: as above
Chaetomium globosum = assay: as above
Chlorella vulgaris = assay: Algistatic concentration against algae
Stiegeocionim sp. = assay: Algistatic concentration against algae

Row | Compound | Minimum inhibitory concentration (Myrothecium verrucaria) [ppm] | Algistatic concentration (Anabaena cylindrica) [ppm] | Algistatic concentration (Oscillatoria tenius) [ppm] | Minimum inhibitory concentration (Trichoderma viridae) [ppm] | Minimum inhibitory concentration (Aspergillus niger) [ppm] | Minimum inhibitory concentration (Chaetomium globosum) [ppm] | Algistatic concentration (Chlorella vulgaris) [ppm] | Algistatic concentration (Stiegeocionim sp.) [ppm] | MIC (Myrothecium verrucaria; Albifimbria verrucaria) [µg/mL] | MIC (Trichoderma viridae) [µg/mL] | MIC (Aspergillus niger) [µg/mL] | MIC (Chaetomium globosum) [µg/mL]
1 | benzalkonium chloride [BAC] | 150 | 1.0 | 0.6 | 75 | 75 | 7 | 1.0 | 0.7 |  |  |  | 
2 | CCCCCCCCCC[N+](C)(C)CCCCCCCCCC.[Cl-] [DDAC, didecyl dimethyl ammonium chloride] |  | 0.2 | 0.7 |  |  |  | 2.0 | 0.7 | 20 | 20 | 75 | 7

Reference: patent US20110002820A1, “EXTERIOR SURFACE TREATMENT SYSTEM” (priority 2008, published 2011)
